Tests used:
Jack bean urease [1] = biological target: T1, Jack bean urease (Canavalia ensiformis, UniProt P07374); test: biochemical
T1 construct: purchased Sigma-Aldrich (USA) Type IX

Jack bean urease [2] = biological target: T1, Jack bean urease; test: mechanistic (kinetic) studies on urease; format: biochemical
Procedure: For mechanistic studies, urease enzyme solution (1 U/200 μL) was incubated with different concentrations of inhibitors for 15 min at 30° C. The reaction was initiated by adding different concentrations of substrate (0.5-4.0 mM), then phenol and alkali reagent were added and change in absorbance was measured for 50 minutes at 630 nm on microtitre plate reader (Spectra Max M5, Molecular Devices, CA, USA).
The IC50 values were calculated by the EZ-Fit enzyme kinetics program (Perellela Scientific, Inc., Amherst, USA). Lineweaver-Burk plot, secondary plot, and Dixon plot were plotted by using Grafit 7 (Erithacus Software Limited, UK). Grafit 7 program was used to evaluate the correlation coefficients, slopes, and intercepts by linear regression analysis.

T1 sequence (P07374 whole entry, looked up): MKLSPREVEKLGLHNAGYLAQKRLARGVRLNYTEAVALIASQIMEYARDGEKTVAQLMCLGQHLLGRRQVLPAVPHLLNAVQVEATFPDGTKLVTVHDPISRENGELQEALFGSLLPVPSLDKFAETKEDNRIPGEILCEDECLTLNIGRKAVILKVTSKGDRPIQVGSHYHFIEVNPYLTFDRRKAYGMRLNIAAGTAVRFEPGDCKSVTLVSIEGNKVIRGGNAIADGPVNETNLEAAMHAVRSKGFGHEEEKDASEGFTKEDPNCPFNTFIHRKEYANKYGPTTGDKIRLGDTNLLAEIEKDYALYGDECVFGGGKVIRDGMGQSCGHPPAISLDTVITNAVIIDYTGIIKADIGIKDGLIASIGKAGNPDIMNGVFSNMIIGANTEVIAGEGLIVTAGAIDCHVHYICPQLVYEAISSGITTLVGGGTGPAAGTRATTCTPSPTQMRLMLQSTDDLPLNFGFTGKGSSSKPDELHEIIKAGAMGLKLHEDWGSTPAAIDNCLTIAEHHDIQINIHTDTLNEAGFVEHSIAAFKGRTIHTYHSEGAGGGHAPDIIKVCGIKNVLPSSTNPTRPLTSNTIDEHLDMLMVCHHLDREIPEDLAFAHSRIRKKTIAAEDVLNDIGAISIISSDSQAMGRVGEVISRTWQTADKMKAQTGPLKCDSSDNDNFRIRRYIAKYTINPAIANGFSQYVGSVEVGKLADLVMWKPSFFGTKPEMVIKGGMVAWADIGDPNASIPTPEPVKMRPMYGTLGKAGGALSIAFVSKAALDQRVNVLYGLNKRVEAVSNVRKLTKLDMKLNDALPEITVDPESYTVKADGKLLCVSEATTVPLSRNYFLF

With C[C@H](CS)C(=O)N1CCC[C@H]1C(=O)O [Captopril, (2S)-1-[(2S)-2-methyl-3-sulfanylpropanoyl]pyrrolidine-2-carboxylic acid] the IC50 (Jack bean urease [1]) was 27 ± 1.97 µM, the “type of inhibition (Lineweaver-Burk plot)” value (Jack bean urease [2]; FIG. 2A, apparent Km and Vmax changed) was “mixed-type inhibitor” and the “type of inhibition (Dixon plot)” value (Jack bean urease [2]; FIG. 2C, 1/Vmax vs [I]) was “non-competitive”.
